In ChEMBL document CHEMBL1138420, “Discovery of adamantane ethers as inhibitors of 11beta-HSD-1: Synthesis and biological evaluation” (Bioorg Med Chem Lett, 2007):

Target: T1, 11-beta-hydroxysteroid dehydrogenase 1 (Homo sapiens, UniProt P28845)
Assay: Inhibition of human 11beta-HSD1 by SPA
Conditions: not given

T1 sequence (P28845 whole entry): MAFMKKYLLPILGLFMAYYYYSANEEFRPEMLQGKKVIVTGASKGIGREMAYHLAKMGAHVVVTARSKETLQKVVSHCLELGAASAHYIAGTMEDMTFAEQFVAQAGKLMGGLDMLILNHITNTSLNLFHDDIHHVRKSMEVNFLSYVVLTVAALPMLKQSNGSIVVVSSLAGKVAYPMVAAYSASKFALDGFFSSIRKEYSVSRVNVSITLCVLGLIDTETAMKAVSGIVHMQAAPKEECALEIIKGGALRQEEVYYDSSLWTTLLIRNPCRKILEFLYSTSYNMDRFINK

Row | IC50 | SMILES
1 | 110 nM | CC(C)(Oc1ccc(Cl)cc1)C(=O)N[C@H]1C2CC3CC1C[C@](COCC(=O)O)(C3)C2
2 | 15 nM | CC(C)(Oc1cccc(Cl)c1)C(=O)N[C@H]1C2CC3CC1C[C@](C(=O)O)(C3)C2

Row | SMILES | IC50
3 | CC(C)(Oc1ccccc1Cl)C(=O)N[C@H]1C2CC3CC1C[C@](C(=O)NS(=O)(=O)c1ccccc1)(C3)C2 | 500 nM

Target: T1, 11-beta-hydroxysteroid dehydrogenase 1
Assay: Inhibition of human 11beta-HSD1 expressed in HEK293 cells by FPIA
Format: cell-based
Conditions: not given

Row | IC50 | SMILES
4 | 670 nM | CC(C)(Oc1ccc(Cl)cc1)C(=O)N[C@H]1C2CC3CC1C[C@](COCC(=O)O)(C3)C2
5 | 190 nM | CC(C)(Oc1cccc(Cl)c1)C(=O)N[C@H]1C2CC3CC1C[C@](C(=O)O)(C3)C2

Test system: not listed separately
Assay: Metabolic stability in mouse liver microsome after 30 mins
Format: ADME
Conditions: liver microsomes, read-out: Stability

Row | remaining at 0.5 h | SMILES
6 | 51% | CC(C)(Oc1ccc(Cl)cc1)C(=O)N[C@H]1C2CC3CC1C[C@](C(=O)NCc1ccc(C(=O)NS(C)(=O)=O)cc1)(C3)C2
7 | 51% | CC(C)(Oc1ccc(Cl)cc1)C(=O)N[C@H]1C2CC3CC1C[C@](C(=O)NCc1ccc(-c4nnn[nH]4)cc1)(C3)C2
8 | 100% | CC(C)(Oc1ccc(Cl)cc1)C(=O)N[C@H]1C2CC3CC1C[C@](COCC(=O)O)(C3)C2
9 | 100% | CC(C)(Oc1cccc(Cl)c1)C(=O)N[C@H]1C2CC3CC1C[C@](C(=O)O)(C3)C2

Target: T2, 11-beta-hydroxysteroid dehydrogenase type 2 (Mus musculus, UniProt P51661)
T2 sequence (P51661 whole entry): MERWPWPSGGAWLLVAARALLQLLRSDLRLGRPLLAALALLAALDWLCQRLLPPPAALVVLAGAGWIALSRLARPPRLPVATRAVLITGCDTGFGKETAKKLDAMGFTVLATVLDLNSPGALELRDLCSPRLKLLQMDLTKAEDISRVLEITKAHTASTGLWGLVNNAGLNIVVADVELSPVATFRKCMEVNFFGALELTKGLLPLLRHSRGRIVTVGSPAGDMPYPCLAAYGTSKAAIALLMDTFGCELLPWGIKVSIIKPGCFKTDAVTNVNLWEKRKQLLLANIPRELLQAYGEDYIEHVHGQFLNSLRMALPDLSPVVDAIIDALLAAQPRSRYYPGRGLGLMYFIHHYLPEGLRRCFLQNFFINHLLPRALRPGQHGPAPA
Assay: Inhibition of mouse 11beta-HSD2 by SPA
Conditions: not given

Row | IC50 | SMILES
10 | 45000 nM | CC(C)(Oc1ccc(Cl)cc1)C(=O)N[C@H]1C2CC3CC1C[C@](COCC(=O)O)(C3)C2
11 | 540 nM | CC(C)(Oc1cccc(Cl)c1)C(=O)N[C@H]1C2CC3CC1C[C@](C(=O)O)(C3)C2

Target: T3, 11-beta-hydroxysteroid dehydrogenase type 2 (Homo sapiens, UniProt P80365)
T3 sequence (P80365 whole entry): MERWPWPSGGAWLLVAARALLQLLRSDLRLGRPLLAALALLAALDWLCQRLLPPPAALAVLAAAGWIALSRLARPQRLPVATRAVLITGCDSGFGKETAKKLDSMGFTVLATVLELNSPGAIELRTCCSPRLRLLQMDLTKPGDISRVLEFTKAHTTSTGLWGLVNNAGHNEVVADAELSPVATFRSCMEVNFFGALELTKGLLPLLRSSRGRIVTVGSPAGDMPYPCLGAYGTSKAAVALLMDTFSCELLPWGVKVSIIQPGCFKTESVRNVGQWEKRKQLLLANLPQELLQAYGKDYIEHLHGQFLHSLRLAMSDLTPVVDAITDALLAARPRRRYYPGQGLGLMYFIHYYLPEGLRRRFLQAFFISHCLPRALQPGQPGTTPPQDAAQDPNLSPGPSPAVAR
Assay: Inhibition of human 11beta-HSD2 by SPA
Conditions: not given

Row | IC50 | SMILES
12 | > 100000 nM | CC(C)(Oc1ccc(Cl)cc1)C(=O)N[C@H]1C2CC3CC1C[C@](COCC(=O)O)(C3)C2
13 | 3500 nM | CC(C)(Oc1cccc(Cl)c1)C(=O)N[C@H]1C2CC3CC1C[C@](C(=O)O)(C3)C2

Target: 11-beta-hydroxysteroid dehydrogenase 1 (Mus musculus, UniProt P50172)
Assay: Inhibition of mouse 11beta-HSD1 by SPA
Conditions: not given

Sequence of 11-beta-hydroxysteroid dehydrogenase 1 (Mus musculus, UniProt P50172) (P50172 whole entry): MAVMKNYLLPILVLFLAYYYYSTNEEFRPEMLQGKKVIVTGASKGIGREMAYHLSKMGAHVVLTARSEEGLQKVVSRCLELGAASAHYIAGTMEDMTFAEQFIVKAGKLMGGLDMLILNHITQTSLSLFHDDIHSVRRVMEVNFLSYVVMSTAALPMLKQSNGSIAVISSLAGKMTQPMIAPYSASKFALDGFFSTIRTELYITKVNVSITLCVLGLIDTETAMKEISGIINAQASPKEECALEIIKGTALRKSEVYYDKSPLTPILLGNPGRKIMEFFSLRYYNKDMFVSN

Row | IC50 | SMILES
14 | 18 nM | CC(C)(Oc1ccc(Cl)cc1)C(=O)N[C@H]1C2CC3CC1C[C@](C(=O)NCc1ccc(-c4nnn[nH]4)cc1)(C3)C2
15 | 210 nM | CC(C)(Oc1ccc(Cl)cc1)C(=O)N[C@H]1C2CC3CC1C[C@](COCC(=O)O)(C3)C2
16 | 51 nM | CC(C)(Oc1cccc(Cl)c1)C(=O)N[C@H]1C2CC3CC1C[C@](C(=O)O)(C3)C2

Row | SMILES | IC50
17 | CC(C)(Oc1ccccc1Cl)C(=O)N[C@H]1C2CC3CC1C[C@](C(=O)NS(=O)(=O)c1ccccc1)(C3)C2 | 1000 nM
